Data reported in patent publication US20230398130A1, “METHODS AND COMPOSITIONS FOR DIFFERENTIATING STEM CELLS” (Massachusetts Institute of Technology, priority 2020, published 2023).

Tests used:
ISC-enriched organoids [1] = assay: Primary screen, 384-well 2.5-D organoid differentiation (ENR+CD, 6 days): basal lysozyme secretion (LYZ.NS); format: cell-based, murine; settings: for Dose.FC.LYZ.NS: primary screen, FC vs plate median; for Z.LYZ.NS: standard z score of FC
Text: (§1) High-throughput screening.

ISC-enriched organoids [2] = assay: Primary screen, 384-well 2.5-D organoid differentiation (ENR+CD, 6 days, Target Selective Inhibitor Library, vs whole-plate median): ATP (CellTiter-Glo 3D, CTG); settings: for Dose.FC.CTG: primary screen, FC vs plate median; for Z.CTG: standard z score of FC
ISC-enriched organoids [3] = assay: Primary screen, 384-well 2.5-D organoid differentiation (ENR+CD, 6 days): carbachol-induced lysozyme secretion (LYZ.S); format: cell-based, murine; settings: primary screen, FC vs plate median
Text: as §1

| Structure (SMILES) | Dose.FC.LYZ.NS (ISC-enriched organoids [1]; Dose 0.08 uM) [log 2 fold change] | Z.LYZ.NS (ISC-enriched organoids [1]; Dose 0.08 uM) | Dose.FC.LYZ.NS (ISC-enriched organoids [1]; Dose 0.40 uM) [log 2 fold change] | Z.LYZ.NS (ISC-enriched organoids [1]; Dose 0.40 uM) | Dose.FC.LYZ.NS (ISC-enriched organoids [1]; Dose 2.00 uM) [log 2 fold change] | Z.LYZ.NS (ISC-enriched organoids [1]; Dose 2.00 uM) | Dose.FC.LYZ.NS (ISC-enriched organoids [1]; Dose 10.00 uM) [log 2 fold change] | Z.LYZ.NS (ISC-enriched organoids [1]; Dose 10.00 uM) | Dose.FC.CTG (ISC-enriched organoids [2]; Dose 0.08 uM) [log 2 fold change] | Z.CTG (ISC-enriched organoids [2]; Dose 0.08 uM) | Dose.FC.CTG (ISC-enriched organoids [2]; Dose 0.40 uM) [log 2 fold change] | Z.CTG (ISC-enriched organoids [2]; Dose 0.40 uM) | Dose.FC.CTG (ISC-enriched organoids [2]; Dose 2.00 uM) [log 2 fold change] | Z.CTG (ISC-enriched organoids [2]; Dose 2.00 uM) | Dose.FC.CTG (ISC-enriched organoids [2]; Dose 10.00 uM) [log 2 fold change] | Z.CTG (ISC-enriched organoids [2]; Dose 10.00 uM) | Dose.FC.LYZ.S (ISC-enriched organoids [3]; Dose 0.08 uM) [log 2 fold change] | Dose.FC.LYZ.S (ISC-enriched organoids [3]; Dose 0.40 uM) [log 2 fold change] | Dose.FC.LYZ.S (ISC-enriched organoids [3]; Dose 2.00 uM) [log 2 fold change] | Dose.FC.LYZ.S (ISC-enriched organoids [3]; Dose 10.00 uM) [log 2 fold change] |
| --- | --- | --- | --- | --- | --- | --- | --- | --- | --- | --- | --- | --- | --- | --- | --- | --- | --- | --- | --- | --- |
| NCC(=O)Nc1ccc(-n2nc(C(F)(F)F)cc2-c2ccc3c(ccc4ccccc43)c2)cc1 [OSU-03012 (AR-12)] | 0.087 | 0.755 | 0.033 | 0.285 | 0.053 | 0.460 | −0.049 | −0.423 | 0.205 | 0.491 | 0.114 | 0.272 | 0.233 | 0.556 | 0.078 | 0.185 | 0.126 | 0.113 | 0.060 | −0.128 |
| CC(C)(F)C[C@H](N[C@@H](c1ccc(-c2ccc(S(C)(=O)=O)cc2)cc1)C(F)(F)F)C(=O)NC1(C#N)CC1 [Odanacatib (MK-0822)] | 0.086 | 0.752 | 0.162 | 1.409 | 0.024 | 0.212 | −0.035 | −0.307 | 0.119 | 0.285 | 0.208 | 0.496 | −0.008 | −0.020 | 0.006 | 0.015 | 0.091 | 0.170 | 0.036 | −0.074 |
| CC[C@@H]1/C=C/C=C/C[C@H](C)[C@H](O)[C@](C)(O)C(=O)[C@H](C)[C@@H](O)[C@H](C)C(=O)[C@H](C)[C@@H](O)[C@H](C)/C=C/C(=O)O[C@H]2[C@@H](C)[C@@H](CC1)O[C@@]1(CC[C@@H](C)[C@@H](C[C@H](C)O)O1)[C@@H]2C [Oligomycin A] | −0.204 | −1.778 | −0.231 | −2.013 | −0.213 | −1.857 | −0.223 | −1.943 | −0.662 | −1.581 | −0.706 | −1.685 | −0.946 | −2.261 | −1.244 | −2.972 | −0.243 | −0.274 | −0.269 | −0.288 |
| CCc1c(C(=O)NCCc2ccc(N3CCCCC3)cc2)[nH]c2ccc(Cl)cc12 [Org 27569] | 0.122 | 1.060 | 0.051 | 0.445 | 0.078 | 0.683 | 0.029 | 0.248 | 0.278 | 0.663 | 0.072 | 0.173 | 0.362 | 0.865 | 0.270 | 0.646 | 0.174 | 0.032 | 0.059 | 0.001 |
| CC(=O)c1cc([N+](=O)[O-])c(Sc2ccc(F)cc2F)s1 [P22077] | 0.039 | 0.338 | −0.005 | −0.041 | 0.028 | 0.248 | −0.056 | −0.487 | −0.216 | −0.516 | 0.049 | 0.117 | −0.134 | −0.320 | −0.130 | −0.311 | −0.182 | 0.065 | −0.007 | −0.063 |
| C=CCc1cccc(/C=N/NC(=O)CN2CCN(Cc3ccccc3)CC2)c1O [PAC-1] | 0.157 | 1.365 | 0.053 | 0.457 | 0.126 | 1.094 | 0.068 | 0.596 | 0.095 | 0.228 | 0.113 | 0.270 | −0.241 | −0.576 | 0.002 | 0.004 | 0.128 | 0.059 | −0.006 | 0.092 |
| O=C(NOCC1CC1)c1ccc(F)c(F)c1Nc1ccc(I)cc1Cl [PD184352 (CI-1040)] | −0.019 | −0.162 | −0.053 | −0.458 | −0.135 | −1.176 | −0.116 | −1.011 | 0.366 | 0.874 | 0.261 | 0.624 | −0.212 | −0.506 | −0.796 | −1.901 | −0.019 | −0.047 | −0.178 | −0.239 |
| O=C(Nc1cccnc1)N1CCC(Cc2cccc(Oc3ccc(C(F)(F)F)cn3)c2)CC1 [PF-3845] | 0.061 | 0.532 | −0.077 | −0.668 | −0.015 | −0.131 | −0.131 | −1.137 | −0.047 | −0.112 | 0.052 | 0.125 | −0.103 | −0.246 | −0.286 | −0.684 | 0.027 | −0.061 | −0.032 | −0.195 |
| CN(c1ncccc1CNc1nc(Nc2ccc3c(c2)CC(=O)N3)ncc1C(F)(F)F)S(C)(=O)=O [PF-562271] | −0.068 | −0.589 | −0.152 | −1.325 | −0.234 | −2.034 | −0.251 | −2.184 | −0.114 | −0.273 | −0.217 | −0.518 | −0.549 | −1.311 | −0.949 | −2.266 | −0.088 | −0.214 | −0.332 | −0.414 |
| CS(=O)(=O)c1cccc(CNc2nc(Nc3ccc4c(c3)CCC(=O)N4)ncc2C(F)(F)F)c1 [PF-573228] | 0.010 | 0.089 | −0.046 | −0.401 | −0.058 | −0.502 | −0.250 | −2.180 | 0.077 | 0.183 | −0.054 | −0.129 | −0.434 | −1.037 | −0.497 | −1.188 | 0.114 | 0.002 | −0.174 | −0.305 |
